Results: patent US10881653B2, “Tricyclic compounds and their use in the treatment of cancer” (The United States of America, as represented by the …, priority 2015, dated 2021)
Where a name gives a salt, the structure may show the parent alone. Read-outs that look alike come from different tables or passages of the source.

Legend:
[1] = molecular target: T1, recombinant thioredoxin reductase 1 (TrxR1) (Homo sapiens, UniProt Q16881); assay: Inhibition of recombinant TrxR1 (DTNB assay); assay type: biochemical
T1 sequence (Q16881 1-649): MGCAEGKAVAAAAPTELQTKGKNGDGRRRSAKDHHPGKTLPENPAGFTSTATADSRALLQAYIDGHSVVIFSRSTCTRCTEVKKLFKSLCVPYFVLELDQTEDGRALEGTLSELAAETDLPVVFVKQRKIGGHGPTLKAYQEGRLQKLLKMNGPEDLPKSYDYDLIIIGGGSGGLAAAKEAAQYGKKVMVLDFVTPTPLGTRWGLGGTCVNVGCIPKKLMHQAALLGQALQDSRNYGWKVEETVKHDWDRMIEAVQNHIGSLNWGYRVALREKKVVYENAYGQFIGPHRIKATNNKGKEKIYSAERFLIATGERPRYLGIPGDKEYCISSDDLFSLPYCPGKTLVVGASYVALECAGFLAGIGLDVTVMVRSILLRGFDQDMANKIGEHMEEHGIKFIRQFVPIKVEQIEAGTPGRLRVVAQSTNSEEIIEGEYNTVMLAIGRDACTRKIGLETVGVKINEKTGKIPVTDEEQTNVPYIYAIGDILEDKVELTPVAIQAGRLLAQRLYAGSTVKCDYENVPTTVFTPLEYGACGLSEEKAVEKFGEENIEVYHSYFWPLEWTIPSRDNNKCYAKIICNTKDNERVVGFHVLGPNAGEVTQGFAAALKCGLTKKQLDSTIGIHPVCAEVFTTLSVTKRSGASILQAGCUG
Protocol: (§1) Small molecule inhibition of recombinant thioredoxin reductase 1 (TrxR1) and gluthathione reductase (GR) was examined in 96-well plate format. 15 nM TrxR1 was incubated in the presence of 250 μM NADPH, 0.1 mg/ml BSA, and various concentrations of the compound of Example 1 (1% DMSO final) in 50 mM Tris (pH 7.5) and 2 mM EDTA buffer for 15 minutes. Following the incubation period, 2.5 mM DTNB was added to each well and the change in O.D. at 412 nm was followed. Percent activity was determined using DMSO vehicle and no TrxR1 (blank) controls. 2 nM GR was incubated in the presence of 250 μM NADPH, 0.1 mg/ml BSA, and various concentrations of compounds (1% DMSO final) in 50 mM Tris (pH 7.5) and 2 mM EDTA buffer for 15 minutes. Following the incubation period, 1 mM GSSG was added to each well and the change in O.D. at 340 nm was followed. Percent activity was determined using DMSO vehicle and no GR (blank) controls.

[2] = molecular target: T2, gluthathione reductase (GR) (Homo sapiens, UniProt P00390); assay: Inhibition of recombinant GR (GSSG assay); assay type: biochemical
T2 sequence (P00390 44-522): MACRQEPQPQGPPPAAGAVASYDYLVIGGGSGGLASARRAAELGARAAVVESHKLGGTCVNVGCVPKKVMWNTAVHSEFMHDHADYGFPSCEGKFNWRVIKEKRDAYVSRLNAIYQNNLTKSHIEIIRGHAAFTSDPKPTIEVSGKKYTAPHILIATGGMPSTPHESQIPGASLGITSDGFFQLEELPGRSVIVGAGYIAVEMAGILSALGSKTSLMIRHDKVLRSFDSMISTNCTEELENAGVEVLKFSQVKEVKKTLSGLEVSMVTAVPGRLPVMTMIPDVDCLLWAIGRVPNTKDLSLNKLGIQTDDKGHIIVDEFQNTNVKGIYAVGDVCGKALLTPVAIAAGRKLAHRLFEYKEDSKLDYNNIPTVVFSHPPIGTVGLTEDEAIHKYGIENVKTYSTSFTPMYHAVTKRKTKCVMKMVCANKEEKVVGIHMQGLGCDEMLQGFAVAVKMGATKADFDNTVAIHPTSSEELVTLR
Protocol: as §1

[3] = Biological Example 1, 15 nM TrxR1, 250 μM NADPH, 15 minutes incubation, read-out: TrxR inhibition
[4] = Biological Example 4, assays of Biological Example 1, read-out: TrxR Inhibition
[5] = Biological Example 1, 2 nM GR, 250 μM NADPH, 15 minutes incubation
[6] = Biological Example 4, assays of Biological Example 1

SMILES	IC50 [1, 3]	IC50 [1, 4]	IC50 [2, 5]	IC50 [2, 6]
O=C1C=C[C@H]2[C@@H]3C(=O)N(c4ccccc4)C(=O)[C@@H]3[C@@H]1N2Cc1ccc(F)cc1Cl (relative stereo) [Example 18, exo-11-(2-Chloro-4-fluorobenzyl)-4-phenyl-4,11-diazatricyclo[5.3.1.0^2,6]-undec-9-ene-3,5,8-trione Trifluoroacetate]	2.45 µM	0.94 µM	70.4 µM	22 µM
O=C1C=CC2C3C(=O)N(c4ccccc4)C(=O)C3C1N2Cc1ccccc1Br (stereo not shown) [Example 20, 11-(2-Bromobenzyl)-4-phenyl-4,11-diazatricyclo[5.3.1.0^2,6]undec-9-ene-3,5,8-trione Trifluoroacetate]	3.7 µM	0.94 µM	> 100 µM	> 100 µM
O=C1C=CC2C3C(=O)N(c4ccccc4)C(=O)C3C1N2Cc1cccc(Br)c1 (stereo not drawn) [Example 34, exo-11-(3-Bromobenzyl)-4-phenyl-4,11-diazatricyclo[5.3.1.0^2,6]undec-9-ene-3,5,8-trione Trifluoroacetate]	–	1.23 µM	–	> 100 µM
O=C1C=C[C@H]2[C@@H]3C(=O)N(Cc4ccccc4)C(=O)[C@@H]3[C@@H]1N2Cc1ccccc1 (relative stereo) [Example 11, exo-4,11-Dibenzyl-4,11-diazatricyclo[5.3.1.0^2,6]undec-9-ene-3,5,8-trione Trifluoroacetate]	–	0.9 µM	–	> 100 µM
O=C1C=C[C@H]2[C@@H]3C(=O)N(c4ccccc4)C(=O)[C@@H]3[C@@H]1N2CC1CC1 (relative stereo) [Example 25, exo-11-(Cyclopropylmethyl)-4-phenyl-4,11-diazatricyclo[5.3.1.0^2,6]undec-9-ene-3,5,8-trione Trifluoroacetate]	–	7.06 µM	–	> 100 µM
CC1=CC(=O)C2C3C(=O)N(Cc4ccccc4)C(=O)C3C1N2Cc1ccccc1 (stereo not shown) [Example 15, 4,11-Dibenzyl-10-methyl-4,11-diazatricyclo[5.3.1.0^2,6]undec-9-ene-3,5,8-trione Trifluoroacetate]	1.45 µM	3.33 µM	> 100 µM	> 100 µM
CN1C(=O)C2C(C1=O)C1C(=O)C=CC2N1C (stereo not drawn) [Example 60, exo-4,11-Dimethyl-4,11-diazatricyclo[5.3.1.0^2,6]undec-9-ene-3,5,8-trione Trifluoroacetate]	–	15.4 µM	–	> 100 µM
O=C1C=C[C@H]2C3C(=O)N(c4ccccc4)C(=O)C3[C@@H]1N2Cc1cc(F)ccc1F (mixture of isomers) [Example 26, endo 11-(2,5-Difluorobenzyl)-4-phenyl-4,11-diazatricyclo[5.3.1.0^2,6]undec-9-ene-3,5,8-trione Trifluoroacetate]	–	2.5 µM	–	30.1 µM
O=C1C=C[C@H]2C3C(=O)N(C4CCCCC4)C(=O)C3[C@@H]1N2Cc1ccccc1 (mixture of isomers) [Example 10, endo-11-Benzyl-4-cyclohexyl-4,11-diazatricyclo[5.3.1.0^2,6]undec-9-ene-3,5,8-trione Trifluoroacetate]	2.7 µM	0.79 µM	> 100 µM	> 100 µM
CCN1C(=O)C2C(C1=O)[C@@H]1C=CC(=O)[C@H]2N1Cc1ccccc1 (relative stereo) [Example 46, endo-11-Benzyl-4-ethyl-4,11-diazatricyclo[5.3.1.0^2,6]undec-9-ene-3,5,8-trione Trifluoroacetate]	–	5.1 µM	–	> 100 µM
O=C1C=C[C@H]2[C@@H]3C(=O)N(c4ccccc4)C(=O)[C@@H]3[C@@H]1N2CCc1ccccc1 (relative stereo) [Example 7, exo-4-Phenyl-11-(2-phenylethyl)-4,11-diazatricyclo[5.3.1.0^2,6]undec-9-ene-3,5,8-trione Trifluoroacetate]	1.75 µM	1.97 µM	> 100 µM	> 100 µM
CC1=CC(=O)[C@@H]2C3C(=O)N(C4CCCCC4)C(=O)C3[C@H]1N2Cc1ccccc1 (stereo partly drawn) [Example 13, endo-11-Benzyl-4-cyclohexyl-10-methyl-4,11-diazatricyclo[5.3.1.0^2,6]undec-9-ene-3,5,8-trione Trifluoroacetate]	–	7.82 µM	–	> 100 µM
Cc1cc(CN2C3C=CC(=O)C2C2C(=O)N(c4ccccc4)C(=O)C23)ccc1F (stereo not drawn) [Example 37, exo-11-(4-Fluoro-3-methylbenzyl)-4-phenyl-4,11-diazatricyclo[5.3.1.0^2,6]-undec-9-ene-3,5,8-trione Trifluoroacetate]	–	0.93 µM	–	> 100 µM
O=C1C=C[C@H]2C3C(=O)N(c4ccccc4)C(=O)C3[C@@H]1N2Cc1cccc(F)c1F (mixture of isomers) [Example 30, endo-11-(2,3-Difluorobenzyl)-4-phenyl-4,11-diazatricyclo[5.3.1.0^2,6]undec-9-ene-3,5,8-trione Trifluoroacetate]	–	1.87 µM	–	25.2 µM

The next lines start with the values.

IC50 [1, 3]	IC50 [1, 4]	IC50 [2, 5]	IC50 [2, 6]	SMILES
–	2.71 µM	–	29.8 µM	O=C1C=C[C@H]2C3C(=O)N(c4ccccc4)C(=O)C3[C@@H]1N2Cc1cccc(F)c1 (stereo partly shown) [Example 28]
–	2.53 µM	–	> 100 µM	CCN1C(=O)[C@@H]2[C@H](C1=O)[C@H]1C(=O)C=C[C@@H]2N1Cc1cccc(C)c1 (relative stereo) [Example 49, exo-4-Ethyl-11-(3-methylbenzyl)-4,11-diazatricyclo[5.3.1.0^2,6]undec-9-ene-3,5,8-trione Trifluoroacetate]
–	1.43 µM	–	> 100 µM	Cc1cccc(CN2[C@@H]3C(=O)C=C[C@H]2[C@@H]2C(=O)N(c4ccc(Br)cc4)C(=O)[C@@H]23)c1 (relative stereo) [Example 66, exo-4-(4-Bromophenyl)-11-(3-methylbenzyl)-4,11-diazatricyclo[5.3.1.0^2,6]-undec-9-ene-3,5,8-trione Trifluoroacetate]
–	3.26 µM	–	> 100 µM	Cc1cccc(CN2[C@@H]3C(=O)C=C[C@H]2[C@@H]2C(=O)N(C)C(=O)[C@@H]23)c1 (relative stereo) [Example 53, exo-4-Methyl-11-(3-methylbenzyl)-4,11-diazatricyclo[5.3.1.0^2,6]undec-9-ene-3,5,8-trione Trifluoroacetate]
1.88 µM	2.24 µM	> 100 µM	> 100 µM	CS(=O)(=O)c1cccc(CN2[C@@H]3C(=O)C=C[C@H]2[C@@H]2C(=O)N(c4ccccc4)C(=O)[C@@H]23)c1 (relative stereo) [Example 68, exo-11-(3-(Methylsulfonyl)benzyl)-4-phenyl-4,11-diazatricyclo[5.3.1.0^2,6]-undec-9-ene-3,5,8-trione Trifluoroacetate]
2.12 µM	0.57 µM	61.9 µM	31.3 µM	O=C1C=CC2C3C(=O)N(c4ccccc4)C(=O)C3C1N2Cc1ccc(Br)cc1 (stereo not shown) [Example 6, 11-(4-Bromobenzyl)-4-phenyl-4,11-diazatricyclo[5.3.1.0^2,6]undec-9-ene-3,5,8-trione Trifluoroacetate]
0.75 µM	1.3 µM	> 100 µM	> 100 µM	Cc1cccc(CN2[C@@H]3C(=O)C=C[C@H]2[C@@H]2C(=O)N(c4cccc(O)c4)C(=O)[C@@H]23)c1 (relative stereo) [Example 58, exo-4-(3-Hydroxyphenyl)-11-(3-methylbenzyl)-4,11-diazatricyclo[5.3.1.0^2,6]undec-9-ene-3,5,8-trione Trifluoroacetate]
